Test results published in US20120040976A1, “SMALL MOLECULE IMMUNOMODULATORS FOR ALZHEIMER'S DISEASE” (HUMAN BIOMOLECULAR RESEARCH INSTITUTE, priority 2008, published 2012).

What was measured:
TLR4 = TLR4 gene expression by qPCR in U-937 human monocytic cells treated with curcumins plus Aβ; assay type: cell-based; conditions: human monocytic cells (U-937), curcumin plus Aβ
Method: (§1) Cell culture conditions for monocytic cell lines. Human and mouse monocyte cell lines are grown in RPMI-1640 medium with 10% fetal bovine serum (FBS), plus glutamine and pen/strep. For treatment with compounds (curcuminoids+/−Aβ), replicate sets of 0.5-1.0 mL cultures containing 1-2×10^6 cells are set up in the wells of 48-well tissue culture plates. Both replicate sets have at least one control well receiving no added curcuminoid to provide baseline expression controls for untreated, and Aβ-only treated cells. Remaining wells receive curcuminoid in a range of 10-fold serial dilutions in DMSO, typically from […] Cultures are incubated for 20-24 hours (“overnight”) at 37° C. in atmosphere with 5% CO2. After one overnight, to one of replicate sets of cultures is added Aβ (1-42) peptide to a final concentration of 5 μg/mL.
(§2) RNA isolation and cDNA synthesis. After the first overnight incubation in the presence of curcuminoid, cells from one replicate set of wells are collected by centifugation. RNAs are extracted from pelleted cells using miniprep column kits following manufacturer's protocol for animal cells. […] of total cellular RNA from each well is quantitated using a Nanodrop spectrophotometer, and first-strand total cDNA is prepared from 0.3-1.0 μg RNA by random-hexamer priming. Following the second 20 hr. incubation in the presence of Aβ, RNA extractions and cDNA synthesis are similarly performed.
(§3) Assay development. Gene-specific mRNA levels are determined using a real-time thermocycler, and by normalizing to expression of one or more control genes. Assays for quantifying mRNA levels are based on gene sequences reported in NCBI Genbank. PCR oligonucleotide primers are selected spanning introns to minimize the opportunity for amplication from any contaminating genomic DNA in the RNA preps. Oligonucleotides are typically tested and used at a concentration of 200 nM in qPCR reactions containing SYBR dye. Control reactions include template from cDNA synthesis reactions either + or − reverse transcriptase (RT), as well as no-template controls (ntc). All reactions are performed in triplicate. Reactions are typically run with 40 cycles of 95° C. (10 sec) and 58° C. (30 sec). Melt curves based on incremental 0.5° C. increases are determined for new assays to test for uniformity of amplified products. Reaction conditions are modified as needed depending on initial test results. ‘Working’ assays are selected based on clear RNA-dependent amplification and absence of product in ‘ntc’ reactions. The following assay primers are used: […]
(§4) qPCR reactions of cultured monocyte cDNAs. One μL total cellular cDNA per reaction is used in triplicate reactions for each test gene, and for each culture treatment. SYBR-Green reactions were run on a Continuous Fluorescence real-time thermocycler and analyzed. Cycle threshold (Ct) values are recorded for each replicate reaction, and are then averaged and normalized against mean Ct values from one or more control genes. Fold-expression differences relative to untreated cells are determined using the 2^−ΔΔCt method as previously described. […] Data are also evaluated for each gene with regard to sensitivity, maximally effective concentration of curcuminoid, response to Aβ, and overall magnitude of fold-expression changes. […]

VDR = VDR gene expression by qPCR in U-937 human monocytic cells treated with curcumins plus Aβ; assay type: cell-based
Method: as §1, §2, §3
qPCR reactions of cultured monocyte cDNAs. One μL total cellular cDNA per reaction is used in triplicate reactions for each test gene, and for each culture treatment. SYBR-Green reactions were run on a Continuous Fluorescence real-time thermocycler and analyzed. Cycle threshold (Ct) values are recorded for each replicate reaction, and are then averaged and normalized against mean Ct values from one or more control genes. Fold-expression differences relative to untreated cells are determined using the 2^−ΔΔCt method as previously described. Data from the curcumin concentration range are plotted in order to determine EC50 values (concentrations producing one-half maximal stimulant activity), which are used for comparisons of potency between different compounds. Data are also evaluated for each gene with regard to sensitivity, maximally effective concentration of curcuminoid, response to Aβ, and overall magnitude of fold-expression changes.
Data showing in vitro up-regulation of genes associated with Aβ phagocytosis in response to curcumins. Natural curcumins and synthetic analogs were tested in U-937 human monocyte cells in vitro for their ability to modulate expression of the genes MGAT3 and TLRs −2, −3, and −4. […]

[1] = system: human monocytic cell line U-937; test: Protection of U-937 cells against oxidative stress (H2O2, Trypan-blue viability); assay type: cell-based
Method: Protective effect of curcumin against oxidative stress. We tested the potential of curcumin to protect cells in vitro under conditions of oxidative stress. Natural curcumin has been reported to have antioxidant activity and to scavenge free radicals, but reports of the direct effects of curcumin or analogs upon cell viability under conditions of oxidative stress are limited. Viability of the human monocytic cell line U-937 was evaluated in the presence of H2O2, plus varying concentrations of natural BDC (range 0-10 nM). We observed that these cells are more sensitive to oxidative stress than are the neuroblastoma SHSY5Y cells, and so reduced concentrations of H2O2 were used for this experiment. […] However, concentrations of BDC between 0.1-10 nM (i.e. similar concentration range inducing maximal gene expression increases +Aβ in these cells) increased 2-hour cell survival rates up to 90%. […] Assays such as Trypan-blue staining, or other biochemical measures of cell toxicity/survival (e.g. ATP levels) may be useful for evaluating curcumin analogs for their neuroprotective effects against oxidative stress and as candidate AD or ALS drugs.

MGAT3 [2] = test: MGAT3 expression in response to oxidative stress (H2O2) in neuroblastoma cells; assay type: cell-based, human; conditions: H2O2, data not shown
Method: Gene expression in response to oxidative stress. […] The neuroblastoma SHSY5Y and wtSOD^+ overexpressing cells were subjected to varying concentrations of hydrogen peroxide (H2O2; 0.5-5 mM) for varying times. After 1, 2, and 3 hours of incubation, cells were harvested, total RNAs were isolated, and prepared cDNAs were used in qPCR experiments to quantify normalized mRNA levels. MGAT3 expression in untransfected cells increased in relation to oxidative stress conditions, with peak expression (>200-fold increased) at 2-3 hours in the presence of 2.5 mM H2O2. Again, increased SOD1 expression appeared to potentiate MGAT3 expression, with higher maximal MGAT3 expression (>300-fold increased) observed in the wtSOD^+ line, and at lower H2O2 concentrations (e.g. 0.5 mM). […] Further, curcumins may potentiate the cellular response to oxidative stress and may therefore have a protective effect.

TLR2 = TLR2 gene expression by qPCR in U-937 human monocytic cells treated with curcumins plus Aβ; assay type: cell-based; conditions: human monocytic cells (U-937), curcumin plus Aβ
Method: as §1, §2, §3, §4

MGAT3 [3] = test: MGAT3 gene expression by qPCR in U-937 human monocytic cells treated with curcumins plus Aβ; assay type: cell-based; conditions: human monocytic cells (U-937), curcumin plus Aβ
Method: as §1, §2
as §3, with “All reactions are performed in triplicate. Reactions are typically run with 40 cycles of 95° C. (10 sec) and 58° C. (30 sec).” left out, “products.” for “products. Reaction conditions are modified as needed depending on initial test results. ‘Working’ assays are selected based on clear RNA-dependent amplification and absence of product in ‘ntc’ reactions. The following assay primers are used:”
as §4, with “One μL total cellular cDNA per reaction is used in triplicate reactions for each test gene, and for each culture treatment.” left out

MGAT3 [4] = test: MGAT3 transcription ratio, AD patient / control PBMCs (qPCR); assay type: cell-based, human; conditions: Aβ stimulation
Outline: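 Via qPCR on cultured human monocyte cDNA, curcuminoid-treated versus vehicle, with Aβ stimulation, in AD patient and control cells. SYBR-Green triplicate reactions; Ct averaged, normalised to control genes, fold change by 2^−ΔΔCt. EC50 taken from curcumin concentration-response data.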

O=C(/C=C(O)/C=C/c1ccc(O)cc1)/C=C/c1ccc(O)cc1 [Compound 1, 5-Hydroxy-1,7-bis-(4-hydroxy-phenyl)-hepta-1,4,6-trien-3-one, reference compound]
Relative gene expression TLR4, increased expression relative to control cells (TLR4): + ((+) <20-fold) | VDR normalized expression response (in words) (VDR; human monocytes, plus Aβ): modest increases | Relative gene expression VDR, increased expression relative to control cells (VDR; human monocytic cells (U-937), curcumin plus Aβ): + ((+) <20-fold) | 2-hour cell survival rate ([1]; U-937, 100 μM H2O2, BDC 0.1-10 nM, Trypan-blue): up to 90% | Cell viability above 0.1-10 nM concentration range ([1]; U-937, in combination with H2O2): decreased | Effect on MGAT3 expression in response to oxidative stress (MGAT3 [2]): enhance MGAT3 expression | IC50 (Anti-oxidant activity): > 250 µM | Relative gene expression TLR2, increased expression relative to control cells (TLR2): + ((+) <20-fold) | Relative gene expression MGAT3, increased expression relative to control cells (MGAT3 [3]): + ((+) <20-fold) | Relative ratio of MGAT3 transcription in AD patient / control PBMC's (MGAT3 [4]): ++ ((++) indicates a ratio of 1.5-2.0)
